Results from US8193147B2, “Use of copolymer 1 for treatment of muscular dystrophy” (Hadasit Medical Research Services & Development Ltd., priority 2007, dated 2012).

Legend:
Assay type in all cases: in vivo, mouse
[1] = test system: dy^2j mice; experiment: Muscle biopsy histology (Hematoxylin-Eosin), muscular fibrosis; settings: dy^2j mice treated with GA for 12 weeks vs untreated; biopsies in week 17; FIG. 7
Experimental: Tissue analysis. […]
Muscle biopsies. Muscle biopsies were obtained from the hind limbs and were tested for:
1. Muscle histology hematoxylin and eosin stain (H&E) and Gommori trichrome stains

[2] = test system: WT and dy^2J mice; experiment: Observation of side effects during treatment; settings: treated group; 200 μg GA IP three times a week for 13 weeks
Experimental: (§1) At 5 weeks of age WT and dy^2J animals were randomly divided to the treated and control groups. The animals were treated three times a week for 13 weeks.
No animal had paralysis with inability to reach food or water or dramatic weight loss (more than 10% weight loss between two weightings or 20% or more than its initial weight) or any other severe stress signs, that would necessitate withdrawal of the animal from the experiment.

[3] = test system: HO (homozygote) dy^2j mice; experiment: Grip strength of hind and fore limbs (Grip Strength Meter) in GA-treated dy2J mice; settings: for hind limbs strength (muscle grip strength per body weight): between week 7 and week 19, p=0.0017, FIG. 1A
Experimental: (§2) Population: Twenty C57BL old mice were randomly divided into 4 groups (5 in each group):
1. WT mice—treated saline 100 μl/IP
2. WT mice—treated with 200 μg GA/IP
3. HO mice—treated Saline 100 μl/IP
4. HO mice—treated with 200 μg GA/IP
as §1
Measurement of muscle strength (blind measurement). Once a week weight gain and total peak force (in Gram force/g bodyweight) were determined using electronic Grip Strength Meter, Columbus Instruments (Columbus, Ohio). Muscle strength measurements of both fore and hind limbs were performed according to Connolly A. M. et al., 2001. Mice were brought to the testing room and allowed to acclimatize for 10 minutes before the test begins. Five measurements (fore and hind limbs) were taken from each animal. The three highest measurements for each animal were averaged to give the strength score. Between the fore and hind measurements the mice were allowed to rest for 10 minutes. All measurements were performed by the same person.

[4] = test system: HO (homozygote) dy^2j mice; experiment: Motion analysis by video-recording (EthoVision), HO dy2J mice
Experimental: as §2, §1
(§3) Motion analysis by video-recording. At the end of the experiment (19 week of age) animal mobility and well-being were video recorded for 10 minutes sessions. The video films were analyzed using the EthoVision system (NBT-New Biotechnology, Jerusalem, Israel, video tracking system recording of activity and movement). Quantitative parameters of mobility of the animals including total distance, maximum distance in 0.2 second, average and peak velocity were calculated.

[5] = test system: WT (wild type) C57BL mice; experiment: Motion analysis by video-recording (EthoVision), WT mice; settings: WT GA vs WT saline
Experimental: as §2, §1, §3

glatiramer acetate [GA]
muscular fibrosis in muscle biopsies [1]: significantly reduced muscular fibrosis | side effects [2]: No other side effects were noted | fore limbs strength (muscle grip strength per body weight) ([3]; GA 200 μg IP three times a week, GA-treated HO vs untreated HO, p=0.13, FIG. 1B): only minimal effect | hind limbs strength (muscle grip strength per body weight) ([3]; GA 200 μg IP three times a week, GA-treated HO vs untreated HO): Significant increase | hind limbs strength (muscle grip strength per body weight) ([3]; GA 200 μg IP three times a week, GA-treated HO vs untreated HO, listed as Cop 1): improved significantly | percentage of hind limbs strength, end of the experiment ([3]; HO treated mice, age 19 weeks, 100% = WT saline group at age seven weeks, FIG. 2): 95.26% | percentage of hind limbs strength, initial ([3]; HO treated mice, week 7, 100% = WT saline group at age seven weeks, FIG. 2): 62.74% | hind limbs muscle strength compared with wild type mice ([3]; treated dy^2j mice, at the end of the experiment, IP injection): as strong as the wild type mice | maximal distance in 0.2 sec period ([4]; HO GA treated vs untreated, p=0.016, FIG. 6): significantly longer | total 10-minutes average distance ([4]; HO GA treated vs untreated, p=0.052, FIG. 5): significantly longer | total ten minutes average velocity ([4]; HO GA-treated (n=5) vs untreated (n=4), p=0.051, FIG. 3): significantly faster | peak velocity in 0.2 sec period ([4]; HO GA-treated vs HO untreated, p=0.017, FIG. 4): significantly faster | mobility ([4]; treated dy^2j mice vs untreated dy^2j mice): improved significantly | mobility compared with wild type mice ([4]; treated dy^2j mice, at the end of the experiment): undistinguishable from the mobility of the wild type mice | peak velocity in 0.2 sec period ([5]; p=0.38, FIG. 4): not significantly different | maximal distance in 0.2 sec period ([5]; p=0.39, FIG. 6): not significantly different | total ten minutes average velocity ([5]; p=0.51, FIG. 3): not significantly different | total 10-minutes average distance ([5]; p=0.51, FIG. 5): not significantly different
